Some test systems named below: HCT-15 colon; HL-60(TB) leukemia; HS 578T breast; IGROV1 ovarian; KM12 colon; M14 melanoma; MCF7 breast; MDA-N; MOLT-4 leukemia; SK-MEL-2 melanoma; SK-MEL-5 melanoma; SNB-19 CNS; T-47D breast; TK-10 renal; UACC-257 melanoma; UACC-62 melanoma; SF-539 CNS.
Holding throughout (assay): NCI-60 cell line screen, 48 h

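Each compound was tested at five concentrations against cells in 96-well plates for 48 hours. The concentration for full growth arrest is given as TGI.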 Bounds are passed on as bounds.

Consider `C=CCOc1ccc(/C(N=Nc2ccc(C)cc2)=N/NC(=O)c2ccccc2)cc1OC`, for which the TGI in the test with HCT-15 colon is > 100 µM; in the test on HL-60(TB) leukemia, 29 µM; in the test on HS 578T breast, 87.6 µM; with IGROV1 ovarian it was 62.1 µM; in the test with KM12 colon, 48.7 µM; in the test with M14 melanoma it was 58.3 µM. Besides, the TGI was 83.6 µM in the test with MCF7 breast; 57.6 µM with MDA-N; > 100 µM with MOLT-4 leukemia; 73.3 µM with SK-MEL-2 melanoma; 31.9 µM in the test on SK-MEL-5 melanoma; > 100 µM with SNB-19 CNS. Moreover, the TGI in the test with T-47D breast was 45.3 µM; in the test on TK-10 renal, > 100 µM; in the test with UACC-257 melanoma, 49.1 µM; with UACC-62 melanoma it was 31.6 µM.
In the case of `Cn1c2c(c3ccccc31)CCN1OCC=C[C@@H](C(=O)O)[C@@H]21`, the TGI with HCT-15 colon, with HL-60(TB) leukemia, with HS 578T breast, in the test with IGROV1 ovarian, in the test on KM12 colon and with M14 melanoma was > 100 µM in each case. The TGI with MCF7 breast, in the test with MDA-N, in the test with SF-539 CNS, in the test on SK-MEL-2 melanoma, with SK-MEL-5 melanoma and with SNB-19 CNS was > 100 µM each time. In addition, the TGI with T-47D breast, with TK-10 renal, with UACC-257 melanoma and with UACC-62 melanoma was > 100 µM in each case.
As for `N=c1oc2c(Br)cc(Br)cc2cc1C(=O)Nc1ccccn1`, the TGI in the test with HCT-15 colon, with HL-60(TB) leukemia, with HS 578T breast, in the test with IGROV1 ovarian, in the test on KM12 colon and in the test on M14 melanoma was > 100 µM throughout. Also, the TGI is > 100 µM with MCF7 breast; > 100 µM in the test on MDA-N; > 100 µM with MOLT-4 leukemia; > 100 µM with SF-539 CNS; 91.8 µM in the test with SK-MEL-2 melanoma; > 100 µM with SK-MEL-5 melanoma. For the same molecule, the TGI in the test on SNB-19 CNS, in the test on T-47D breast, in the test with UACC-257 melanoma and with UACC-62 melanoma was > 100 µM each time.
For `O=C1C=CC(=O)c2c1cc([N+](=O)[O-])c1ccoc21`, the TGI with HCT-15 colon is 58.5 µM; in the test on HL-60(TB) leukemia it was 8.72 µM; in the test with HS 578T breast it was > 60.1 µM; in the test on IGROV1 ovarian, 51.9 µM; with KM12 colon, 31.9 µM; in the test on M14 melanoma, 11.3 µM. Besides, the TGI was 44.3 µM in the test on MCF7 breast; 35.4 µM with MDA-N; 69.9 µM in the test on SF-539 CNS; 35.9 µM with SK-MEL-2 melanoma; 31.3 µM in the test with SK-MEL-5 melanoma; 39.6 µM in the test on SNB-19 CNS. Besides, the TGI in the test with T-47D breast is > 100 µM; with TK-10 renal, 4.37 µM; with UACC-257 melanoma, 32.4 µM; with UACC-62 melanoma it was 29.4 µM.
Consider `CCN1C(=S)n2cccc2C1CC(=O)c1ccc(Cl)cc1` (stereo not given), for which the TGI in the test on HCT-15 colon, in the test on HL-60(TB) leukemia, with HS 578T breast, in the test on IGROV1 ovarian, with KM12 colon and with M14 melanoma was > 100 µM each time. Also, the TGI in the test on MCF7 breast was > 100 µM; with MDA-N, > 100 µM; with MOLT-4 leukemia, 90.1 µM; with SK-MEL-2 melanoma, > 100 µM; with SNB-19 CNS, > 100 µM; with T-47D breast, > 100 µM. For the same molecule, the TGI in the test with TK-10 renal, with UACC-257 melanoma and in the test with UACC-62 melanoma was > 100 µM each time.
In the case of `COc1ccc(N=Nc2c(C)c(C#N)c(=S)n(C3OC(COC(C)=O)C(OC(C)=O)C(OC(C)=O)C3OC(C)=O)c2C)cc1` (stereo not given), the TGI in the test with HL-60(TB) leukemia was > 100 µM; with HS 578T breast, 82 µM; in the test with IGROV1 ovarian it was > 100 µM; with KM12 colon, > 100 µM; with M14 melanoma it was > 100 µM; in the test with MCF7 breast, > 100 µM. Also, the TGI in the test on MDA-N, with MOLT-4 leukemia, with SF-539 CNS, in the test on SK-MEL-5 melanoma, with SNB-19 CNS and with T-47D breast was > 100 µM in each case. Besides, the TGI with TK-10 renal, in the test with UACC-257 melanoma and in the test with UACC-62 melanoma was > 100 µM throughout.
As for `CC(C)(C)N1C(=O)c2ccccc2C1(O)C(F)(F)F` (stereo not given), the TGI in the test on HCT-15 colon was > 100 µM; with HL-60(TB) leukemia, > 100 µM; in the test with HS 578T breast, 97.8 µM; in the test with IGROV1 ovarian, > 100 µM; in the test with KM12 colon, > 100 µM; in the test with M14 melanoma, > 100 µM. Besides, the TGI in the test on MCF7 breast, in the test with MDA-N, with SF-539 CNS, in the test with SK-MEL-2 melanoma, with SK-MEL-5 melanoma and in the test with SNB-19 CNS was > 100 µM each time. Moreover, the TGI in the test with T-47D breast, with TK-10 renal, in the test with UACC-257 melanoma and in the test with UACC-62 melanoma was > 100 µM in each case.
`COc1ccc(C2=Nn3c(nc4sc(C)c(C)c4c3=O)SC2)cc1`: the TGI in the test with HCT-15 colon, with HL-60(TB) leukemia, with HS 578T breast, in the test with IGROV1 ovarian, with KM12 colon and in the test with MCF7 breast was > 100 µM throughout. Besides, the TGI in the test with MDA-N, in the test on MOLT-4 leukemia, with SF-539 CNS, in the test with SK-MEL-5 melanoma, with T-47D breast and with TK-10 renal was > 100 µM throughout. The TGI with UACC-257 melanoma and with UACC-62 melanoma was > 100 µM throughout.
Regarding `Cc1ccc2nc(N/N=C/c3ccc(C)s3)cc(C)c2c1`, the TGI in the test with HCT-15 colon worked out at 15.3 µM; with HS 578T breast, 39.2 µM; in the test with IGROV1 ovarian, 23.6 µM; in the test on KM12 colon, 16.1 µM; with M14 melanoma, 23.3 µM; with MCF7 breast, 20 µM. In addition, the TGI in the test with MDA-N came to 20.4 µM; with MOLT-4 leukemia, 53.4 µM; in the test on SF-539 CNS, 24.4 µM; in the test with SK-MEL-2 melanoma it was 35.3 µM; in the test on SK-MEL-5 melanoma, 20.4 µM; in the test with SNB-19 CNS, 27.2 µM. Further, the TGI with T-47D breast came to 41.9 µM; with TK-10 renal it was 25.2 µM; in the test on UACC-257 melanoma, 19.9 µM; in the test on UACC-62 melanoma it was 23.6 µM.

The values above are taken from PubChem BioAssay (NCI).
